Laboratory results as given in publication PMC6017745 (Molecules : A Journal of Synthetic Chemistry and Natural …, 2018).
Entries after “also recorded” stand apart in the source; their conditions may differ. Where two headings read alike, the source gives them in different places.

Legend:
MAO-A = experiment: Post-mortem cerebral MAO-A activity (radioisotopic assay); type: in vivo, rat; conditions: cerebral cortex, rats s.c. 3 mg/kg/daily for five days, means ± SEM
Description: (§1) Post-mortem brain analyses included estimation of the amine neurotransmitters concentrations as well as the activities of the degradative enzymes HNMT and MAO-A and MAO-B. The rats were sacrificed 24 h after the last injection. The brains were collected, separated into hypothalamus and the cerebral cortex according to the Glowinski and Iversen method, immediately frozen in liquid nitrogen and kept at −80 °C until assayed. […] For MAO-A serotonin (5-[2-^14C]-hydroxytryptamine binoxalate) and for MAO-B β-[ethyl-1-^14C]-phenylethylamine hydrochloride were used as substrates and respectively, clorgyline (MAO-A) and deprenyl (MAO-B) (final conc. 10^−9 M) as the enzymes inhibitors. Protein was measured by Lowry method.

[1] = test system: histamine concentration in rat brain; experiment: Post-mortem cerebral histamine concentration (ELISA); type: in vivo; conditions: rats, s.c. 3 mg/kg/daily for five days
Description: (§2) Post-mortem brain analyses included estimation of the amine neurotransmitters concentrations as well as the activities of the degradative enzymes HNMT and MAO-A and MAO-B. The rats were sacrificed 24 h after the last injection. The brains were collected, separated into hypothalamus and the cerebral cortex according to the Glowinski and Iversen method [42], immediately frozen in liquid nitrogen and kept at −80 °C until assayed. […] For MAO-A serotonin (5-[2-^14C]-hydroxytryptamine binoxalate) and for MAO-B β-[ethyl-1-^14C]-phenylethylamine hydrochloride were used as substrates and respectively, clorgyline (MAO-A) and deprenyl (MAO-B) (final conc. 10^−9 M) as the enzymes inhibitors.

HNMT = experiment: Post-mortem cerebral HNMT activity (radioisotopic assay); type: in vivo, rat; conditions: for HNMT activity CTX: cerebral cortex; for HNMT activity CTX / HNMT activity HTH: rats s.c. 3 mg/kg/daily for five days, means ± SEM; for HNMT activity HTH: hypothalamus
Description: as §2

Lewis rats = experiment: Food consumption during subchronic administration to rats (metabolic cages); type: in vivo, rat; conditions: s.c. 3 mg/kg/daily for five days
Description: For the first stage, food intakes were measured daily during subchronic drugs administration. […] All animal experimental procedures were performed in accordance with EU directives and local ethical regulations. Male Lewis rats 9–10 weeks of age were used. Metabolic cages (Tecniplast, Buguggiate, Italy) were used to measure feed consumption. The cages have a standardized size that allows the animal to move inside freely. Throughout the adaptive period and the experimental one, access to feed and fluid was unlimited. The illumination cycle was stable at 12 h light on, 12 h light off. Rats were individually placed in the cages four days before the onset of treatment to adapt to a new environment and conditions of housing. The consumption and excretion were recorded every morning and the monitoring continued as long as the rats stayed in metabolic cages. The treatment ran for five days from the fifth day. […] Records of consumption were taken as g of feed per 100 g body mass.

MAO-B = experiment: Post-mortem cerebral MAO-B activity (radioisotopic assay); type: in vivo, rat; conditions: cerebral cortex, rats s.c. 3 mg/kg/daily for five days, means ± SEM
Description: as §1

[2] = test system: dopamine, noradrenaline and serotonin concentration in rat brain; experiment: Post-mortem cerebral concentration of biogenic amines DA, NA, 5-HT (RIA); type: in vivo; conditions: rats
Description: as §2

H1 receptor [3] = molecular target: T1, H1 receptor (Cavia porcellus, UniProt P31389); parameters: The excised ileum was placed in phosphate buffer at room temperature; from tissue; host or cells: guinea pig ileum; conditions: guinea pig ileum, NA = inactive, cited from earlier work
H1 receptor [4] = molecular target: T1, H1 receptor; experiment: H1 antagonistic effects in vitro using the guinea pig ileum
Description: The final compounds showing the highest potency for the H3 receptors were also tested for H1 antagonistic effects in vitro, following standard methods, using the guinea pig ileum [34].
Selected final compounds were tested for H1 antagonistic effects in vitro, following standard methods, using the guinea pig ileum [34]. The donors were male guinea pigs (300–400 g) as mentioned above.

H3 receptor = H3 receptor (Cavia porcellus, UniProt Q9JI35); experiment: H3 antagonistic activity against H3 agonist-induced inhibition of electrically evoked contraction of guinea-pig jejunum; conditions: vs (R)-α-methylhistamine, Schild analysis; for pA2 (SEM) H3: guinea pig jejunum; for Kb: pA2 (SEM) H3, guinea pig jejunum
[5] = molecular target: T2, rat histamine H3 receptor (rH3R) (Rattus norvegicus, UniProt Q9QYN8); experiment: biochemical
[6] = molecular target: T2, rat histamine H3 receptor (rH3R); conditions: read-out: KD saturation binding at rH3R; HEK-293T membranes, two hours at 25 °C
[7] = molecular target: human histamine H3 receptor (hH3R) (Homo sapiens, UniProt Q9Y5N1); conditions: read-out: KD saturation binding at hH3R
human histamine H3 receptor (hH3R), sequence (Q9Y5N1 whole entry): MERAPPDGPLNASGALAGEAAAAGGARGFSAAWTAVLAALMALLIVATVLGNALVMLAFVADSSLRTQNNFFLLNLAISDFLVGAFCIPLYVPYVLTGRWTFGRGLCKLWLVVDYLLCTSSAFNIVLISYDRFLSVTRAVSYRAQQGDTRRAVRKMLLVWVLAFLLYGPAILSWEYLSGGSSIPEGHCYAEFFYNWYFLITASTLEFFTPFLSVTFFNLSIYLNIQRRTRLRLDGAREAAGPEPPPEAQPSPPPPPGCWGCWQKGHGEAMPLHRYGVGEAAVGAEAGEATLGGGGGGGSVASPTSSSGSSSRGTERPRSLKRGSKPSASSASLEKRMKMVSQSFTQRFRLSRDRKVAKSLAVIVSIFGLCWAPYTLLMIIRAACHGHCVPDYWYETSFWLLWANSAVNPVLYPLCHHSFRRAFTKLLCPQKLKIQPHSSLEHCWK

T1 sequence (P31389 whole entry): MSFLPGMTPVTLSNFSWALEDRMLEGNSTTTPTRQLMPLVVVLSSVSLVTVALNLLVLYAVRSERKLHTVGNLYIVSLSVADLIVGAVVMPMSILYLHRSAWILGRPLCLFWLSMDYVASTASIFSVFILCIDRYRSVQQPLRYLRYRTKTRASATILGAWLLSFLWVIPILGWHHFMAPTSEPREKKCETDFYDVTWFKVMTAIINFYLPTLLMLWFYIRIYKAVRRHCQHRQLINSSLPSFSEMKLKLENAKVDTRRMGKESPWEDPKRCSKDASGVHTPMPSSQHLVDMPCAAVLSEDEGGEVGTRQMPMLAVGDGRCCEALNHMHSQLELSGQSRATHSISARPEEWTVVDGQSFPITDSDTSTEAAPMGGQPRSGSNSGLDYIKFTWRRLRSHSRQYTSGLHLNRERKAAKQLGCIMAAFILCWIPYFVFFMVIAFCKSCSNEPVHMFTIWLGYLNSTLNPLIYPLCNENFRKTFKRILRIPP
H3 receptor, sequence (Q9JI35 whole entry): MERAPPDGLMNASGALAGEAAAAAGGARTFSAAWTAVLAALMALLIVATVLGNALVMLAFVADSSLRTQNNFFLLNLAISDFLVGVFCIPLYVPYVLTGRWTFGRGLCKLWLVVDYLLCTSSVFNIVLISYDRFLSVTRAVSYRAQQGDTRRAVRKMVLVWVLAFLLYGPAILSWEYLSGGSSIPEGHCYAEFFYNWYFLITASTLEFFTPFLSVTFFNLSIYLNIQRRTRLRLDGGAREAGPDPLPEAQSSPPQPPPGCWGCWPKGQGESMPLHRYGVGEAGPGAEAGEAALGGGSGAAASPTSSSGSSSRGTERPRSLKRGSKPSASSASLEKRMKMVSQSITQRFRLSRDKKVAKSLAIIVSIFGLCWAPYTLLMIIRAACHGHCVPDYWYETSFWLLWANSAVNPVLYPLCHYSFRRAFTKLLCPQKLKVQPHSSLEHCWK
T2 sequence (Q9QYN8 whole entry): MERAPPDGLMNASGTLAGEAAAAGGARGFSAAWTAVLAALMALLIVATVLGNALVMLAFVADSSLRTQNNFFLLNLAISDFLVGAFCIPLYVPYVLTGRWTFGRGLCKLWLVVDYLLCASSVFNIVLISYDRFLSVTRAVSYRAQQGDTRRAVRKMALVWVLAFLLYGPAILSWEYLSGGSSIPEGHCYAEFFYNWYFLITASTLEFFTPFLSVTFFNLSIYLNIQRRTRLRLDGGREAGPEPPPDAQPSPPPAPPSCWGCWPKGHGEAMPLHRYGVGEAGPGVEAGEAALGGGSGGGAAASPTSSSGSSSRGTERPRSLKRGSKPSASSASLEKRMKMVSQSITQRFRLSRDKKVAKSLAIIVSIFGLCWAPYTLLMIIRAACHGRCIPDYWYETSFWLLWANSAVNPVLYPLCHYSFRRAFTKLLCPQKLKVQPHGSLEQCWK

## O=C(c1ccc(OCCCc2cnc[nH]2)cc1)C1CC1 [Ciproxifan, ciproxifan, reference compound]
MAO-A
  MAO-A activity CTX: 1654 ± 31.42 pmol/min/mg protein
[1]; 3 mg/kg
  histamine concentration in the hypothalamus: tended to be higher than in the untreated controls; also recorded: significantly higher than in ADS-531 injected rats
HNMT
  HNMT activity CTX: 46.90 ± 3.59 pmol/min/mg protein
  HNMT activity HTH: 44.68 ± 5.50 pmol/min/mg protein
Lewis rats
  effect on food intake: caused a significant decrease in consumption
MAO-B
  MAO-B activity CTX: 1049 ± 56.16 pmol/min/mg protein

## CCCN1CCN(c2ncc(CCN(C)CCCc3ccccc3)s2)CC1 [Compound 2c, N-methyl-N-3-phenylalkyl-2-[2-(4-n-propylpiperazin-1-yl)-1,3-thiazol-5-yl]ethan-1-amine]
MAO-A
  MAO-A activity CTX: 1625 ± 49.99 pmol/min/mg protein
[1]; listed as ADS-531, 3 mg/kg
  cerebral histamine concentration: did not affect histamine concentration; also recorded: No significant changes
[2]; s.c. 3 mg/kg, 5 days
  brain penetration: penetrated the brain
[2]; s.c. 3 mg/kg/daily for five days, listed as ADS-531, 3 mg/kg
  cerebral concentrations of dopamine, noradrenaline and serotonin: affected dopamine, noradrenaline and serotonin concentration; also recorded: caused alterations in the concentrations of dopamine, noradrenaline, and serotonin; also recorded: increase of 5HT and NA level throughout the brain with the exception of the hypothalamus
HNMT
  HNMT activity CTX: 48.19 ± 0.47 pmol/min/mg protein
  HNMT activity HTH: 37.58 ± 2.42 pmol/min/mg protein
HNMT; rats, s.c. 3 mg/kg/daily for five days
  effect on enzyme activities related to histamine metabolism in the brain (HNMT, MAO-B pathway): No significant changes
Lewis rats; listed as ADS-531, 3 mg/kg
  effect on food intake: did not affect histamine concentration nor feeding behavior; also recorded: did not influence the food intake
MAO-B
  MAO-B activity CTX: 1044 ± 38.91 pmol/min/mg protein
H1 receptor [3]
  pA2 (SEM) H1: did not possess any activity at H1
H1 receptor [3]; listed as ADS-531
  pA2 (SEM) H1: did not exhibit any H1-antagonistic activity; also recorded: devoid of the antagonistic activity at the H1 receptor

## CCCN1CCN(c2ncc(CCCN(C)Cc3ccccc3)s2)CC1 [Compound 3a, N-Benzyl-N-methyl-3-[2-(4-n-piperazin-1-yl)-1,3-thiazol-5-yl]propan-1-amine]
H1 receptor [4]
  Kb: 3160 nM
H3 receptor
  pA2 (SEM) H3: 8.38
  Kb: 4.17 nM

## CCCN1CCN(c2ncc(CCCN(C)CCc3ccccc3)s2)CC1 [Compound 3b, N-Methyl-N-(2-phenylethyl)-3-[2-(4-n-propylpiperazin-1-yl)-1,3-thiazol-5-yl]propan-1-amine]
H3 receptor
  pA2 (SEM) H3: 7.81
  Kb: 15.5 nM

## CCCN1CCN(c2ncc(CCCN(C)CCCc3ccccc3)s2)CC1 [Compound 3c, N-Methyl-N-(3-phenylpropyl)-3-[2-(4-n-propylpropylpiperazin-1-yl)-1,3-thiazol-5-yl]-propan-1-amine]
H3 receptor
  pA2 (SEM) H3: 7.46
  Kb: 34.7 nM

## CCCN1CCN(c2ncc(CCCCN(C)Cc3ccccc3)s2)CC1 [Compound 3d, N-Benzyl-N-methyl-4-[2-(4-n-propylpiperazin-1-yl)-1,3-thiazol-5-yl]butan-1-amine]
H1 receptor [4]
  Kb: 562 nM
H1 receptor [4]; guinea pig ileum, vs histamine
  pA2 (SEM) H1: 6.25
H3 receptor
  Kb: 11.2 nM

## CCCN1CCN(c2ncc(CCCCN(C)CCc3ccccc3)s2)CC1 [Compound 3e, N-Methyl-N-(2-phenylethyl)-4-[2-(4-n-propylpiperazin-1-yl)-1,3-thiazol-5-yl]butan-1-amine]
H3 receptor
  Kb: 10.7 nM

## CCCN1CCN(c2ncc(CCCCN(C)CCCc3ccccc3)s2)CC1 [Compound 3f, N-Methyl-N-(3-phenylpropyl)-4-[2-(4-n-propylpiperazin-1-yl)-1,3-thiazol-5-yl]butan-1-amine]
H3 receptor
  pA2 (SEM) H3: 7.91
  Kb: 12.3 nM

## S=C(NC1CCCCC1)N1CCC(c2cnc[nH]2)CC1 [Thioperamide, thioperamide, reference compound]
[5]
  Ki: 12.6 nM
H3 receptor
  Kb: 3.39 nM

## CNCCc1cnc[nH]1 [[^3H]-N^α-MH, [^3H]-N^α-methylhistamine]
[6]
  Kd: 2.72 ± 0.34 nM
[7]
  Kd: 0.9 ± 0.08 nM
